In brackets after ≈: the same amount, converted by molar mass.
Assays:
Format in all cases: functional
Klebsiella aerogenes = assay: In vitro antibacterial activity against Enterobacter aerogenes C32
Escherichia coli = assay: In vitro antibacterial activity against Escherichia coli EC14
Haemophilus influenzae = assay: In vitro antibacterial activity against Haemophilus influenza C.L
Klebsiella pneumoniae = assay: In vitro antibacterial activity against Klebsiella X26
Pseudomonas aeruginosa = assay: In vitro antibacterial activity against Pseudomonas PS72
[1] = test system: Staphylococcus epidermidis; assay: In vitro antibacterial activity against Staphylococcus epidermidis 222
Staphylococcus aureus = assay: In vitro antibacterial activity against Staphylococcus aureus X1.1
Streptococcus pneumoniae = assay: In vitro antibacterial activity against Streptococcus pneumoniae PARK

| Structure (SMILES) | MIC (Klebsiella aerogenes) [µg/mL] | MIC (Escherichia coli) [µg/mL] | MIC (Haemophilus influenzae) [µg/mL] | MIC (Klebsiella pneumoniae) [µg/mL] | MIC (Pseudomonas aeruginosa) [µg/mL] | MIC [1] [µg/mL] | MIC (Staphylococcus aureus) [µg/mL] | MIC (Streptococcus pneumoniae) [µg/mL] |
| --- | --- | --- | --- | --- | --- | --- | --- | --- |
| CCCO/N=C(/C(=O)N[C@H]1CN2CC(S(C)(=O)=O)=C(C(=O)O)N2C1=O)c1csc(N)n1 | 0.25 (≈ 0.529 µM) | 0.125 (≈ 0.265 µM) | 0.125 (≈ 0.265 µM) | 0.015 (≈ 0.0317 µM) | 128 (≈ 271 µM) | 16 (≈ 33.9 µM) | 8 (≈ 16.9 µM) | 0.125 (≈ 0.265 µM) |
| CCS(=O)(=O)C1=C(C(=O)O)N2C(=O)[C@@H](NC(=O)/C(=N/OCCF)c3csc(N)n3)CN2C1 | 0.125 (≈ 0.255 µM) | 0.06 (≈ 0.122 µM) | 0.25 (≈ 0.51 µM) | 0.03 (≈ 0.0612 µM) | > 128 | 32 (≈ 65.2 µM) | 16 (≈ 32.6 µM) | 0.125 (≈ 0.255 µM) |
| CCCO/N=C(/C(=O)N[C@H]1CN2CC(S(=O)(=O)CCC)=C(C(=O)O)N2C1=O)c1csc(N)n1 | 1 (≈ 2 µM) | 0.5 (≈ 0.999 µM) | 0.5 (≈ 0.999 µM) | 0.06 (≈ 0.12 µM) | > 128 | 32 (≈ 63.9 µM) | 16 (≈ 32 µM) | 0.125 (≈ 0.25 µM) |
| N#CC1=C(C(=O)O)N2C(=O)[C@@H](NC(=O)/C(=N/OCCBr)c3csc(N)n3)CN2C1 | 0.5 (≈ 1.03 µM) | 0.125 (≈ 0.258 µM) | 0.125 (≈ 0.258 µM) | 0.06 (≈ 0.124 µM) | > 128 | 4 (≈ 8.26 µM) | 8 (≈ 16.5 µM) | 0.125 (≈ 0.258 µM) |
| N#CC1=C(C(=O)O)N2C(=O)[C@@H](NC(=O)Cc3cccs3)CN2C1 | 64 (≈ 193 µM) | 16 (≈ 48.1 µM) | 16 (≈ 48.1 µM) | 32 (≈ 96.3 µM) | > 128 | 32 (≈ 96.3 µM) | 8 (≈ 24.1 µM) | 2 (≈ 6.02 µM) |
| CCCS(=O)(=O)C1=C(C(=O)O)N2C(=O)[C@@H](NC(=O)/C(=N/OCCBr)c3csc(N)n3)CN2C1 | 0.5 (≈ 0.884 µM) | 0.25 (≈ 0.442 µM) | 0.125 (≈ 0.221 µM) | 0.03 (≈ 0.0531 µM) | > 128 | 8 (≈ 14.1 µM) | 8 (≈ 14.1 µM) | 0.06 (≈ 0.106 µM) |
| N#CC1=C(C(=O)O)N2C(=O)[C@@H](NC(=O)/C(=N/OCCF)c3csc(N)n3)CN2C1 | 0.125 (≈ 0.295 µM) | 0.03 (≈ 0.0709 µM) | 0.25 (≈ 0.59 µM) | 0.03 (≈ 0.0709 µM) | 128 (≈ 302 µM) | 16 (≈ 37.8 µM) | 32 (≈ 75.6 µM) | 0.25 (≈ 0.59 µM) |
| N#CC1=C(C(=O)O)N2C(=O)[C@@H](NC(=O)/C(=N/OCc3ccccc3)c3csc(N)n3)CN2C1 | 8 (≈ 17.1 µM) | 8 (≈ 17.1 µM) | 0.25 (≈ 0.535 µM) | 0.125 (≈ 0.267 µM) | > 128 | 8 (≈ 17.1 µM) | 8 (≈ 17.1 µM) | 0.06 (≈ 0.128 µM) |
| CCCCS(=O)(=O)C1=C(C(=O)O)N2C(=O)[C@@H](NC(=O)/C(=N/OCCCl)c3csc(N)n3)CN2C1 | 1 (≈ 1.87 µM) | 0.5 (≈ 0.935 µM) | 0.5 (≈ 0.935 µM) | 0.03 (≈ 0.0561 µM) | > 128 | 16 (≈ 29.9 µM) | 8 (≈ 15 µM) | 0.125 (≈ 0.234 µM) |

Continued, values first:

| MIC (Klebsiella aerogenes) [µg/mL] | MIC (Escherichia coli) [µg/mL] | MIC (Haemophilus influenzae) [µg/mL] | MIC (Klebsiella pneumoniae) [µg/mL] | MIC (Pseudomonas aeruginosa) [µg/mL] | MIC [1] [µg/mL] | MIC (Staphylococcus aureus) [µg/mL] | MIC (Streptococcus pneumoniae) [µg/mL] | Structure (SMILES) |
| --- | --- | --- | --- | --- | --- | --- | --- | --- |
| 0.125 (≈ 0.255 µM) | 0.03 (≈ 0.0612 µM) | 0.125 (≈ 0.255 µM) | 0.03 (≈ 0.0612 µM) | 128 (≈ 261 µM) | 16 (≈ 32.6 µM) | 8 (≈ 16.3 µM) | 0.06 (≈ 0.122 µM) | CS(=O)(=O)C1=C(C(=O)O)N2C(=O)[C@@H](NC(=O)/C(=N/OCCCF)c3csc(N)n3)CN2C1 |
| 32 (≈ 91.9 µM) | 16 (≈ 45.9 µM) | 32 (≈ 91.9 µM) | 16 (≈ 45.9 µM) | > 128 | 64 (≈ 184 µM) | 32 (≈ 91.9 µM) | 2 (≈ 5.74 µM) | N#CC1=C(C(=O)O)N2C(=O)[C@@H](NC(=O)Cc3csc(N)n3)CN2C1 |
| 0.06 (≈ 0.116 µM) | 0.03 (≈ 0.0581 µM) | 0.06 (≈ 0.116 µM) | 0.125 (≈ 0.242 µM) | 8 (≈ 15.5 µM) | > 128 | > 128 | 2 (≈ 3.87 µM) | CC(C)(O/N=C(/C(=O)N[C@H]1CN2CC(S(C)(=O)=O)=C(C(=O)O)N2C1=O)c1csc(N)n1)C(=O)O |
| 0.25 (≈ 0.453 µM) | 0.06 (≈ 0.109 µM) | 0.25 (≈ 0.453 µM) | 0.015 (≈ 0.0272 µM) | > 128 | 8 (≈ 14.5 µM) | 8 (≈ 14.5 µM) | 0.125 (≈ 0.227 µM) | CCS(=O)(=O)C1=C(C(=O)O)N2C(=O)[C@@H](NC(=O)/C(=N/OCCBr)c3csc(N)n3)CN2C1 |
| 128 (≈ 392 µM) | 32 (≈ 98.1 µM) | 32 (≈ 98.1 µM) | 32 (≈ 98.1 µM) | > 128 | 32 (≈ 98.1 µM) | 16 (≈ 49 µM) | 8 (≈ 24.5 µM) | N#CC1=C(C(=O)O)N2C(=O)[C@@H](NC(=O)Cc3ccccc3)CN2C1 |
| 0.25 (≈ 0.531 µM) | 0.125 (≈ 0.266 µM) | 0.125 (≈ 0.266 µM) | 0.03 (≈ 0.0638 µM) | 128 (≈ 272 µM) | 16 (≈ 34 µM) | 8 (≈ 17 µM) | 0.125 (≈ 0.266 µM) | C=CCO/N=C(/C(=O)N[C@H]1CN2CC(S(C)(=O)=O)=C(C(=O)O)N2C1=O)c1csc(N)n1 |
| 128 (≈ 357 µM) | 32 (≈ 89.3 µM) | 32 (≈ 89.3 µM) | 16 (≈ 44.6 µM) | > 128 | 8 (≈ 22.3 µM) | 4 (≈ 11.2 µM) | 0.5 (≈ 1.4 µM) | N#CC1=C(C(=O)O)N2C(=O)[C@@H](NC(=O)CSc3ccccc3)CN2C1 |
| 0.5 (≈ 0.991 µM) | 0.25 (≈ 0.495 µM) | 0.5 (≈ 0.991 µM) | 0.06 (≈ 0.119 µM) | > 128 | 64 (≈ 127 µM) | 16 (≈ 31.7 µM) | 0.125 (≈ 0.248 µM) | CCS(=O)(=O)C1=C(C(=O)O)N2C(=O)[C@@H](NC(=O)/C(=N/OCSC)c3csc(N)n3)CN2C1 |
